Measured values taken from patent US20100273808A1 (Millennium Pharmaceticals, Inc., priority 2008, published 2010).
Read-outs that look alike come from different tables or passages of the source.

Experiment: Equilibrium aqueous solubility under pH controlled conditions
Assay type: physicochemical

Which solubility (aqueous buffer, thermodynamic from solid, in water, physiologically relevant pH's, read-out: solubility) does the source give for `COc1cc2c(N3CCN(C(=O)Nc4ccc(OC(C)C)cc4)CC3)ncnc2cc1OCCCN1CCCCC1.C[C@H](O)C(=O)O` [Form 1, 4-[6-methoxy-7-(3-piperidin-1-yl-propoxy)quinazolin-4-yl]piperazine-1-carboxylic acid(4-isopropoxyphenyl)-amide (L)-lactate Form 1] here?
The solubility was greater than 450 mg/mL.

And the solubility (pH 3.51, aqueous buffer, thermodynamic from solid, equilibrium aqueous, pH 3.51, read-out: Solubility)?
The solubility was 496 mg/mL.

What about the solubility (pH 3.97, aqueous buffer, thermodynamic from solid, equilibrium aqueous, pH 3.97, read-out: Solubility) of the same molecule?
The solubility was 465 mg/mL.

And the solubility (pH 4.23, aqueous buffer, thermodynamic from solid, equilibrium aqueous, pH 4.23, read-out: Solubility)?
The solubility was 511 mg/mL.

What about the solubility (pH 5.96, aqueous buffer, thermodynamic from solid, equilibrium aqueous, pH 5.96, read-out: Solubility) of the same molecule?
Its solubility is 458 mg/mL.

With `COc1cc2c(N3CCN(C(=O)Nc4ccc(OC(C)C)cc4)CC3)ncnc2cc1OCCCN1CCCCC1.C[C@H](O)C(=O)O` [Form 4, 4-[6-methoxy-7-(3-piperidin-1-yl-propoxy)quinazolin-4-yl]piperazine-1-carboxylic acid(4-isopropoxyphenyl)-amide (L)-lactate Form 4] as the molecule, how does the solubility (in water, physiologically relevant pH's) read?
Its solubility is “greater than 325 mg/mL”.

What about the solubility (pH 3.65, aqueous buffer, thermodynamic from solid, equilibrium aqueous, pH 3.65, read-out: Solubility) of the same molecule?
Its solubility is 359 mg/mL.

What about the solubility (pH 5.85, aqueous buffer, thermodynamic from solid, equilibrium aqueous, pH 5.85, read-out: Solubility) of the same molecule?
The solubility was 412 mg/mL.

What about the solubility (pH 6.03, aqueous buffer, thermodynamic from solid, equilibrium aqueous, pH 6.03, read-out: Solubility) of the same molecule?
Its solubility is 327 mg/mL.

Which solubility (in water, pH 6.95, read-out: solubility) does the source give for `COc1cc2c(N3CCN(C(=O)Nc4ccc(OC(C)C)cc4)CC3)ncnc2cc1OCCCN1CCCCC1` [compound of formula (II), 4-[6-methoxy-7-(3-piperidin-1-yl-propoxy)quinazolin-4-yl]piperazine-1-carboxylic acid(4-isopropoxyphenyl)-amide] here?
Its solubility is roughly 1.24 mg/mL.
